Data: ChEMBL document CHEMBL1909046, “DrugMatrix in vitro pharmacology data”

What was measured:
[1] = biological target: T1, Thromboxane-A synthase (Homo sapiens, UniProt P24557); assay: biochemical; type: tissue-based, Platelet; settings: platelet;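 further: enzyme inhibition assay with PGH2 supplied as substrate; in other assays of this panel Not Active means under 50% inhibition at 10 µM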
T1 sequence (P24557 whole entry): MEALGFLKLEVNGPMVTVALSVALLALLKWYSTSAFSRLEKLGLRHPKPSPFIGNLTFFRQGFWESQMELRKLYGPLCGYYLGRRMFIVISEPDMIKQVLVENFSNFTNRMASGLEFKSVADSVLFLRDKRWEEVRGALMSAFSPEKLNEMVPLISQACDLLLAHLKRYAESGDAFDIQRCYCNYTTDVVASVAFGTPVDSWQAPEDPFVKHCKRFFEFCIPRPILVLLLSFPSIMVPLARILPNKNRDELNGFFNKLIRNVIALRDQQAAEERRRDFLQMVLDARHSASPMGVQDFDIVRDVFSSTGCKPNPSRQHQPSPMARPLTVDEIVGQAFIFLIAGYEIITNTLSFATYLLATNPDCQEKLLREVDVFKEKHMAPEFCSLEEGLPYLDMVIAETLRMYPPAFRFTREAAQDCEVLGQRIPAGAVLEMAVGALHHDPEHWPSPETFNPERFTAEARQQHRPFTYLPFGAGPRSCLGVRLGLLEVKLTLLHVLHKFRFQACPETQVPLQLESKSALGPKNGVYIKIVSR

[2] = DRUGMATRIX: Calcium Channel Type L, Dihydropyridine radioligand binding (ligand: [3H] Nitrendipine); type: cell membranes, Rattus norvegicus, Wistar, Cerebral cortex, Membrane; settings: Not Active = under 50% inhibition at 10 µM
[3] = biological target: T2, 5-hydroxytryptamine receptor 2C (Homo sapiens, UniProt P28335); assay: DRUGMATRIX: Serotonin (5-Hydroxytryptamine) 5-HT2C radioligand binding (ligand: [3H] Mesulergine); type: cell membranes, CHO-K1, Membrane; settings: Not Active = under 50% inhibition at 10 µM
T2 sequence (P28335 whole entry): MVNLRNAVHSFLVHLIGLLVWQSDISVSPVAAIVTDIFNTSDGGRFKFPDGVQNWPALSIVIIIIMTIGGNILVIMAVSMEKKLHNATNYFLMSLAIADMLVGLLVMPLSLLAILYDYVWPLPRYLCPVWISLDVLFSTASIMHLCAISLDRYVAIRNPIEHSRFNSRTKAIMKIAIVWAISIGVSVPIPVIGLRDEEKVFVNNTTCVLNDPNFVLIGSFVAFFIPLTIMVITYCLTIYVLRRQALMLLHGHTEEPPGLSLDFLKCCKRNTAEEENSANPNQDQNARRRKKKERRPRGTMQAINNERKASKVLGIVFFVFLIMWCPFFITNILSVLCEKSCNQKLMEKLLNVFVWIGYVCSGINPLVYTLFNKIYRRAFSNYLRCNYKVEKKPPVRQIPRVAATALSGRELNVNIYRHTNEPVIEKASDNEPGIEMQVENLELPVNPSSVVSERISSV

[4] = biological target: T3, Angiotensin-converting enzyme (Oryctolagus cuniculus, UniProt P12822); type: tissue-based, Lung;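 further: enzymatic inhibition of angiotensin-converting enzyme measured with FAPGG as the substrate; in other assays of this panel Not Active means under 50% inhibition at 10 µM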
T3 sequence (P12822 whole entry): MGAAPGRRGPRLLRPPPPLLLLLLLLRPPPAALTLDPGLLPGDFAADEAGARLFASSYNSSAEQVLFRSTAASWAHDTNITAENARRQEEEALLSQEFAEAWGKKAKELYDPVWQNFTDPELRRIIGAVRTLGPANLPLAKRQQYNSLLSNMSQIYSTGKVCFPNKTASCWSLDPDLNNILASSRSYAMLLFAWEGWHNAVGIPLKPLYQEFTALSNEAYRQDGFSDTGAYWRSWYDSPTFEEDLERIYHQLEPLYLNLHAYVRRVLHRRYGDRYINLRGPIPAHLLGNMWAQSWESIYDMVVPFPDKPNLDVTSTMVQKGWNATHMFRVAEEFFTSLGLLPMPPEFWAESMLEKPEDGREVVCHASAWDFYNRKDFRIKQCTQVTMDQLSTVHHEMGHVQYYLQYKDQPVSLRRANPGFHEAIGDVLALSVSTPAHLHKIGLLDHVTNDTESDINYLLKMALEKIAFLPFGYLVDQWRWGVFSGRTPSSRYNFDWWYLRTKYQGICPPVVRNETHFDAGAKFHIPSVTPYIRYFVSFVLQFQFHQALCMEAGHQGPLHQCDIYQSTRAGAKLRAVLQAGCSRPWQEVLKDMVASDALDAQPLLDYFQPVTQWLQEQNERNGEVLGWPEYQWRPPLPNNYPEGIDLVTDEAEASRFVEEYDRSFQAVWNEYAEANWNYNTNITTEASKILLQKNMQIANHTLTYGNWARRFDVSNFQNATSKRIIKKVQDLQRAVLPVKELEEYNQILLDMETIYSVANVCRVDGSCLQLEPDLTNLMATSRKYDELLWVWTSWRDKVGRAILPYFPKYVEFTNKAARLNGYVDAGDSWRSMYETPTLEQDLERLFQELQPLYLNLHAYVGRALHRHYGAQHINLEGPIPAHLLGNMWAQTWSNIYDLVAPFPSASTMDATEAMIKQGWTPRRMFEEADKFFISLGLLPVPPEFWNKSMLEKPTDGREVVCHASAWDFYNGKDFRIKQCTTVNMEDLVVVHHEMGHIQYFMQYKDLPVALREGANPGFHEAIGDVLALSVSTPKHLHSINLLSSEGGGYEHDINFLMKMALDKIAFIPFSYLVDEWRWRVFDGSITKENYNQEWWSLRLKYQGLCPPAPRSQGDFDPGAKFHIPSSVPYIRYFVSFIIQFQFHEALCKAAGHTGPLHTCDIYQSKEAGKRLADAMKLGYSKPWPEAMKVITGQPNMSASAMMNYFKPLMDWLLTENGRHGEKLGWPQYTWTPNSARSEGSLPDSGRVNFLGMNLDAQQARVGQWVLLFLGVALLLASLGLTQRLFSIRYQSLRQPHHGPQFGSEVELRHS

[5] = DRUGMATRIX: beta-Lactamase enzyme inhibition (substrate: Nitrocefin); set-up: species or system Bacillus cereus; settings: Not Active = under 50% inhibition at 10 µM
[6] = biological target: T4, Neuropeptide Y receptor type 1 (Homo sapiens, UniProt P25929); type: cell membranes, Membrane; settings: sk-n-mc; further: in other assays of this panel Not Active means under 50% inhibition at 10 µM
T4 sequence (P25929 whole entry): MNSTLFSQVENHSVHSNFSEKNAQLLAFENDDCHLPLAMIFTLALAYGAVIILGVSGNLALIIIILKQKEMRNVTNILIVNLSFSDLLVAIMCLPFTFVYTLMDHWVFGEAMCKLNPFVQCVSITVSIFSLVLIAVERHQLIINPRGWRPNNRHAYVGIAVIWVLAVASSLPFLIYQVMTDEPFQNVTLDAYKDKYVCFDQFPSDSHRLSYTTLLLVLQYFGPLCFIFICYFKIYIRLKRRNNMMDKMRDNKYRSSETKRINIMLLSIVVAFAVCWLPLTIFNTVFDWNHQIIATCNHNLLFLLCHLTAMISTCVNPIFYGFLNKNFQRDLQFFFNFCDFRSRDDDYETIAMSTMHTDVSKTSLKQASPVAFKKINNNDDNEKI

Row | Compound | IC50 [1] | Ki [1] | IC50 [2] | Ki [2] | IC50 ([3]; cho-k1) | Ki ([3]; cho-k1) | IC50 [4] | Ki [4] | IC50 [5] | Ki [5] | IC50 [6] | Ki [6] | IC50 ([2]; read-out: IC50) [µM] | Ki ([2]; read-out: Ki) [µM] | IC50 ([3]; read-out: IC50) [µM] | Ki ([3]; read-out: Ki) [µM]
1 | SODIUM ORTHOVANAD | Not Active | Not Active | Not Active | Not Active | Not Active | Not Active | Not Active | Not Active | Not Active | Not Active | Not Active | Not Active |  |  |  | 
2 | Cc1c(C)c2c(c(C)c1O)CCC(C)(CN1CCN(c3cc(N4CCCC4)nc(N4CCCC4)n3)CC1)O2 (stereo not drawn) | Not Active |  |  |  |  |  | Not Active |  | Not Active | Not Active | Not Active |  | 1.66 | 1.07 | 7.56 | 3.96
3 | O=C(O)c1cn(-c2ccc(F)cc2)c2cc(N3CCNCC3)c(F)cc2c1=O [SARAFLOXACIN] | Not Active |  | Not Active | Not Active | Not Active |  | Not Active |  | Not Active | Not Active | Not Active |  |  |  |  | 
4 | Nc1cc(N2CCCCC2)nc(N)[n+]1[O-] [MINOXIDIL] | Not Active |  | Not Active | Not Active | Not Active |  | Not Active |  | Not Active | Not Active | Not Active |  |  |  |  | 
5 | CC(C)NCC(O)c1ccc(NS(C)(=O)=O)cc1 (stereo not drawn) [SOTALOL] | Not Active |  | Not Active | Not Active | Not Active |  | Not Active |  | Not Active | Not Active | Not Active |  |  |  |  | 
6 | CS(=O)(=O)c1ccc([C@@H](O)[C@@H](CO)NC(=O)C(Cl)Cl)cc1 [THIAMPHENICOL] | Not Active |  | Not Active | Not Active | Not Active |  | Not Active |  | Not Active | Not Active | Not Active |  |  |  |  | 
7 | CCN1CCC[C@H]1CNC(=O)c1cc(S(N)(=O)=O)ccc1OC [LEVOSULPIRIDE] | Not Active |  | Not Active | Not Active | Not Active |  | Not Active |  | Not Active | Not Active | Not Active |  |  |  |  | 
8 | CCN(CC)CC(=O)Nc1c(C)cccc1C [LIDOCAINE] | Not Active |  | Not Active | Not Active | Not Active |  | Not Active |  | Not Active | Not Active | Not Active |  |  |  |  | 
9 | CC(c1cc2ccccc2s1)N(O)C(N)=O (stereo not drawn) [ZILEUTON] | Not Active |  | Not Active | Not Active | Not Active |  | Not Active |  | Not Active | Not Active | Not Active |  |  |  |  | 
10 | CCCCNc1ccc(C(=O)OCCN(C)C)cc1 [TETRACAINE] | Not Active |  | Not Active | Not Active |  |  | Not Active |  | Not Active | Not Active | Not Active |  |  |  | 3.27 | 1.71
11 | CC[C@@H](C(=O)[C@@H](C)[C@@H](O)[C@H](C)[C@@H]1O[C@@H]([C@@H](CC)C(=O)O)CC[C@@H]1C)[C@H]1O[C@]2(C=C[C@@H](O)[C@]3(CC[C@@](C)([C@H]4CC[C@](O)(CC)[C@H](C)O4)O3)O2)[C@H](C)C[C@@H]1C [SALINOMYCIN] | Not Active |  | Not Active | Not Active | Not Active |  | Not Active |  | Not Active | Not Active | Not Active |  |  |  |  | 
12 | CO[C@@H]1[C@@H](OC)[C@H](C)[C@@](O)(CC(=O)O)O[C@H]1[C@H](C)[C@H]1O[C@@]2(CC[C@@](C)([C@H]3CC[C@@](C)([C@@H]4O[C@@H]([C@H]5O[C@](C)(O)[C@H](C)C[C@@H]5C)C[C@@H]4O[C@@H]4C[C@H](OC)[C@@H](OC)[C@H](C)O4)O3)O2)C[C@H](O)[C@H]1C [MADURAMICIN ACID] | Not Active |  | Not Active | Not Active |  |  | Not Active |  | Not Active | Not Active | Not Active |  |  |  | 0.034 | 0.018
13 | CC(C)Cc1ccc([C@@H](C)C(=O)O)cc1 [(R)-IBUPROPHEN] | Not Active |  | Not Active | Not Active | Not Active |  | Not Active |  | Not Active | Not Active | Not Active |  |  |  |  | 
14 | NC(=O)N1C(=O)/C(=C(\O)c2cccs2)c2cc(Cl)ccc21 [TENIDAP] | Not Active |  | Not Active | Not Active | Not Active |  | Not Active |  | Not Active | Not Active | Not Active |  |  |  |  | 
15 | O=C1C(CC[S+]([O-])c2ccccc2)C(=O)N(c2ccccc2)N1c1ccccc1 (stereo not drawn) [SULFINPYRAZONE] | Not Active |  | Not Active | Not Active | Not Active |  | Not Active |  | Not Active | Not Active | Not Active |  |  |  |  | 
16 | CO[C@H]1/C=C/O[C@@]2(C)Oc3c(C)c(O)c4c(O)c(c(/C=N/N5CCN(C6CCCC6)CC5)c(O)c4c3C2=O)NC(=O)/C(C)=C\C=C\[C@H](C)[C@H](O)[C@@H](C)[C@@H](O)[C@@H](C)[C@H](OC(C)=O)[C@@H]1C [RIFAPENTINE] | Not Active |  | Not Active | Not Active | Not Active |  | Not Active |  | Not Active | Not Active | Not Active |  |  |  |  | 
17 | Cn1c(=O)c2nc[nH]c2n(C)c1=O.O [THEOPHYLLINE] | Not Active |  | Not Active | Not Active | Not Active |  | Not Active |  | Not Active | Not Active | Not Active |  |  |  |  | 
